Results published in paper PMC13114161 (Antibiotics, 2026).
Read-outs that look alike come from different tables or passages of the source.

Key:
P. aeruginosa ATCC 27853 [1] = format: cell-based, Pseudomonas aeruginosa; settings: for FoR, resistance to TXA11114 alone: ATCC 27853
Description: OmpH is a homologous periplasmic chaperone that binds newly synthesized, unfolded outer membrane proteins (OMPs) and delivers them to the outer membrane for assembly by the BAM machinery, thereby preventing aggregation and facilitating proper membrane insertion.
Frequency-of-resistance studies were carried out as described previously.

[2] = test system: P. aeruginosa ATCC 27853 ompH mutants EPIR32, EPIR36, EPIR38; experiment: microbe, parasite or virus in culture; format: cell-based, Pseudomonas aeruginosa
Description: (§1) MIC assays for potentiation of antimicrobial activity against P. aeruginosa were performed as described previously.

P. aeruginosa ATCC 27853 [3] = experiment: MIC and levofloxacin potentiation (broth microdilution); format: cell-based, Pseudomonas aeruginosa; settings: for MIC: Pseudomonas aeruginosa, ATCC27853
P. aeruginosa ATCC 27853 [4] = experiment: Neutropenic murine thigh infection model; format: in vivo, CD-1 mice
Description: Female CD-1 mice (6–8 weeks old; 22 ± 2 g) were obtained from Envigo Laboratories, quarantined for at least 3 days, and housed 5 per cage in accordance with the approved IACUC protocol (IACUC-2017-0049). Neutropenia was induced by intraperitoneal (IP) administration of cyclophosphamide (Cytoxan) at 150 mg/kg on day 4 and 100 mg/kg on day 1 prior to infection.
Mice were infected intramuscularly (IM) in the right thigh with 0.1 mL of bacterial suspension containing approximately 1 × 10^5–10^6 CFU/mL. […] At 2 h or 24 h post-infection, mice were euthanized by CO2 asphyxiation, and thighs were aseptically excised and placed in 2 mL sterile phosphate-buffered saline (PBS) on ice. Tissue homogenization was performed using a Polytron PT10-35 (12 mm aggregate, Kinematica, Malters, Switzerland).
Plates were incubated overnight at 37 °C, and colonies were enumerated the following day.

[5] = test system: multidrug-resistant P. aeruginosa clinical isolates from the CDC-FDA; experiment: Levofloxacin MIC potentiation, CDC-FDA isolates; format: cell-based, Pseudomonas aeruginosa; settings: for Levofloxacin MIC fold difference, +EPI / Levofloxacin MIC, +EPI: EPI […] (TXA11114, TXA09155) or 50 μg/mL (MC-04,124, PAβN)
Description: In a comparative study, the levofloxacin-potentiating activity of TXA11114 was evaluated alongside the well-characterized EPIs PAβN and MC-04,124 using P. aeruginosa clinical isolates obtained from the CDC and FDA Antimicrobial Resistance Isolate Bank and the Walter Reed Army Institute of Research (WRAIR). […] While PAβN has been widely studied in laboratory strains, its activity against the CDC/FDA P. aeruginosa panel has been reported only sparingly, limiting direct cross-study comparisons.
as §1

CYP2C19 = molecular target: T1, CYP2C19 (Homo sapiens, UniProt P33261); experiment: Cytochrome P450 inhibition; format: in vitro ADME; settings: human liver microsomes; read-out: CYP Inhibition IC50, 2C19
T1 construct: from tissue; host or cells: human liver microsomes
Description: (§2) Inhibition of CYP1A2, CYP2D6, CYP2C9, CYP2C19, and CYP3A4 by TXA11114 was assessed in human liver microsomes by measuring the inhibition of probe substrate metabolism. Phenacetin, bufuralol, diclofenac, S-mephenytoin, and midazolam were used as probe substrates for CYP1A2, CYP2D6, CYP2C9, CYP2C19, and CYP3A4, respectively. Corresponding metabolites (acetaminophen, OH-bufuralol, 4-OH diclofenac, 4-OH mephenytoin, and 1-OH midazolam) were quantified by LC-MS/MS. Selective inhibitors (fluvoxamine (CYP1A2), quinidine (CYP2D6), sulfaphenazole (CYP2C9), ticlopidine (CYP2C19), and ketoconazole (CYP3A4)) were used as positive controls. Test and control compounds, prepared in DMSO at various concentrations, were spiked into 2× microsomal reaction mixtures, and 50 µL aliquots were transferred to individual wells. Probe substrates (25 µL, 4× concentration) were added to the respective wells and pre-incubated for 5 min at 37 °C. Reactions were initiated by the addition of 25 µL NADPH (4×) and incubated for 5 min (CYP3A4), 10 min (CYP1A2, CYP2D6, CYP2C9), or 20 min (CYP2C19). Reactions were quenched with 100 µL ice-cold acetonitrile containing glipizide as an internal standard. Plates were centrifuged at 4000 rpm for 15 min, and 100 µL supernatants were analyzed by LC-MS/MS in MRM mode. […] Percent inhibition was calculated as 100 − percent activity. IC50 values were determined using GraphPad Prism (version 5.02).

CYP2C9 = molecular target: T2, CYP2C9 (Homo sapiens, UniProt P11712); experiment: Cytochrome P450 inhibition; format: in vitro ADME; settings: human liver microsomes; read-out: CYP Inhibition IC50, 2C9
T2 construct: from tissue; host or cells: human liver microsomes
Description: as §2

CYP1A2 = molecular target: T3, CYP1A2 (Homo sapiens, UniProt P05177); experiment: Cytochrome P450 inhibition; format: in vitro ADME; settings: human liver microsomes; read-out: CYP Inhibition IC50, 1A2
T3 construct: from tissue; host or cells: human liver microsomes
Description: as §2

[6] = test system: P. aeruginosa DA7232 (gyrA-T83I, parC-S80L); experiment: Levofloxacin MIC potentiation; format: cell-based, Pseudomonas aeruginosa; settings: DA7232; […] TXA11114
Description: as §1

[7] = +24 hr, TXA11114 30 mg/kg IV QID alone
[8] = combined CDC/FDA and WRAIR MDR isolate sets

T3 sequence (P05177 whole entry): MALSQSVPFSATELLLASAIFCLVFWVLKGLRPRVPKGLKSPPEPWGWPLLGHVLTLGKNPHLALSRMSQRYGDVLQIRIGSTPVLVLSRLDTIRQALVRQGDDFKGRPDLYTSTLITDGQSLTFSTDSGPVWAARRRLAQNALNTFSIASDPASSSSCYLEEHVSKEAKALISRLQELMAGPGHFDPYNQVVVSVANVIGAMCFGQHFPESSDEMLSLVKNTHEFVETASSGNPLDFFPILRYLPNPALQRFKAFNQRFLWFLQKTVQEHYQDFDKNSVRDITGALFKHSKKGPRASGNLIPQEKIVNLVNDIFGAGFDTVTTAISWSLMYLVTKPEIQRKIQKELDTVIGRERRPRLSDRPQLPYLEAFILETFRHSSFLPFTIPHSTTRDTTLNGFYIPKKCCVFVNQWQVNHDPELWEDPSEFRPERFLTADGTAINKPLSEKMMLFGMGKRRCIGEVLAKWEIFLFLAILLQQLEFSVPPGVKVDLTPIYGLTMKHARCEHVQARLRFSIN
T1 sequence (P33261 whole entry): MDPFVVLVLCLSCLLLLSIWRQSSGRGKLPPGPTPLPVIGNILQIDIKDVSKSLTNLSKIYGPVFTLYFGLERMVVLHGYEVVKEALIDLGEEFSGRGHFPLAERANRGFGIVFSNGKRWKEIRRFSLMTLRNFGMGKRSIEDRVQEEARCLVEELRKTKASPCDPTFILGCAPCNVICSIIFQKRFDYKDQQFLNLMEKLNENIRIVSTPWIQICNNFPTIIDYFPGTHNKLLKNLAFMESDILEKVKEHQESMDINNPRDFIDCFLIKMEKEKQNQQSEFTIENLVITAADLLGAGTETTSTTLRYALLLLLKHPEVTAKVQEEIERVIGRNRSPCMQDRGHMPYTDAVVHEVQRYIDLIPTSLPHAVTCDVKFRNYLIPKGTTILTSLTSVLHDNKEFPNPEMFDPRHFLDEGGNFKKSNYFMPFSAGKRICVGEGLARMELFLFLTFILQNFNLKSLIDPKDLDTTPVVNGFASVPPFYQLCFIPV
T2 sequence (P11712 whole entry): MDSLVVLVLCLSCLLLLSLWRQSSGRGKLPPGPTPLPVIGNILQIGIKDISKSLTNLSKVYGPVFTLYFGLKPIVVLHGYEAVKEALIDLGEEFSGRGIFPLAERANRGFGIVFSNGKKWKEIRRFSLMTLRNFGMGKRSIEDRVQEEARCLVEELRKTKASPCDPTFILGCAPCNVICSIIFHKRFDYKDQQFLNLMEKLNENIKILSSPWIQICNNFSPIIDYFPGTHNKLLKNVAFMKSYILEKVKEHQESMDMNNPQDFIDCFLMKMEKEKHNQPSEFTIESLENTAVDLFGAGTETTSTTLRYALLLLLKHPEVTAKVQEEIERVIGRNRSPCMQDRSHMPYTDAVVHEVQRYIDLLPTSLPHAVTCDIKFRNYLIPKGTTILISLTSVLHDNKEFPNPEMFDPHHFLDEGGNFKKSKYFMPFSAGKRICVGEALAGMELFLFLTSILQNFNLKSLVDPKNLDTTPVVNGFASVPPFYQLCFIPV

## NCC(F)C[C@@H](N)CNC(=O)c1cc2ccc(-c3ccc(F)cc3)cc2[nH]1 (stereo partly drawn) [TXA11114, N-((2R)-2,5-diamino-4-fluoropentyl)-6-(4-fluorophenyl)-1H-indole-2-carboxamide]
P. aeruginosa ATCC 27853 [1]
  Frequency of Resistance: <1.04 × 10^−10
P. aeruginosa ATCC 27853 [1]; 1X-MIC (100 µg/mL)
  FoR, resistance to TXA11114 alone: 1.8 × 10^−6
P. aeruginosa ATCC 27853 [1]; 4X-MIC (400 µg/mL)
  FoR, resistance to TXA11114 alone: <3.09 × 10^−9
[2]; EPI36
  Fold MIC reduction [LVX/EPI‐LVX]: 1 fold
  LVX MIC (+ EPI […]): 0.125
[2]; EPIR32
  Fold MIC reduction [LVX/EPI‐LVX]: 1 fold
  LVX MIC (+ EPI […]): 0.25
[2]; EPIR36, listed as TXA
  MIC: 200 µg/mL
[2]; Pseudomonas aeruginosa, ATCC27853, EPIR32
  MIC: > 200 µg/mL
[2]; Pseudomonas aeruginosa, ATCC27853, EPIR36
  MIC: > 200 µg/mL
[2]; Pseudomonas aeruginosa, ATCC27853, EPIR38
  MIC: 200 µg/mL
P. aeruginosa ATCC 27853 [3]; EPI at […], ATCC 27853
  Fold MIC reduction [LVX/EPI-LVX]: 8 fold
P. aeruginosa ATCC 27853 [3]; ATCC 27853 parent strain (Table S1), read-out: MIC
  MIC: 100 µg/mL
P. aeruginosa ATCC 27853 [3]; EPI alone, ATCC 27853, read-out: EPI MIC
  MIC: 100 µg/mL
P. aeruginosa ATCC 27853 [3]; levofloxacin MIC with EPI at […], ATCC 27853
  LVX MIC (+EPI): 0.125 µg/mL
P. aeruginosa ATCC 27853 [4]; 30 mg/kg, IV, QID
  Effect of EPI alone on bacterial burden, thigh: had no impact on bacterial burden
P. aeruginosa ATCC 27853 [4]; [7]
  Mean Log10 CFU (thigh): 8.95 log10 CFU
  Mean Log10 CFU Change vs +2 hr Control, Δlog10 (treatment-baseline), thigh: 2.87 log10 CFU
P. aeruginosa ATCC 27853 [4]; TXA11114 30 mg/kg IV QID alone
  Mean Log10 CFU Change vs +24 hr Control, thigh: 0.13 log10 CFU
P. aeruginosa ATCC 27853 [4]; murine thigh and lung infection models
  CFU reduction by combination, exceeding levofloxacin alone: > 1 log10 CFU
[5]; AR-0229
  Levofloxacin MIC fold difference, +EPI: 32 fold
  Levofloxacin MIC, +EPI: 2 µg/mL
[5]; AR-0232
  Levofloxacin MIC fold difference, +EPI: 16 fold
  Levofloxacin MIC, +EPI: 0.5 µg/mL
[5]; AR-0233
  Levofloxacin MIC fold difference, +EPI: 8 fold
  Levofloxacin MIC, +EPI: 0.5 µg/mL
[5]; AR-0234
  Levofloxacin MIC fold difference, +EPI: 32 fold
  Levofloxacin MIC, +EPI: 0.25 µg/mL
[5]; AR-0239
  Levofloxacin MIC fold difference, +EPI: 4 fold
  Levofloxacin MIC, +EPI: 8 µg/mL
[5]; AR-0242
  Levofloxacin MIC fold difference, +EPI: 4 fold
  Levofloxacin MIC, +EPI: 2 µg/mL
[5]; AR-0244
  Levofloxacin MIC fold difference, +EPI: 8, (8) fold
  Levofloxacin MIC, +EPI: 8, (8) μg/mL
[5]; AR-0246
  Levofloxacin MIC fold difference, +EPI: 8, (8) fold
  Levofloxacin MIC, +EPI: 8, (8) μg/mL
[5]; AR-0248
  Levofloxacin MIC fold difference, +EPI: 8 fold
  Levofloxacin MIC, +EPI: 2 µg/mL
[5]; AR-0249
  Levofloxacin MIC fold difference, +EPI: 16 fold
  Levofloxacin MIC, +EPI: 4 µg/mL
[5]; AR-0252
  Levofloxacin MIC fold difference, +EPI: 8 fold
  Levofloxacin MIC, +EPI: 4 µg/mL
[5]; AR-0253
  Levofloxacin MIC fold difference, +EPI: 16 fold
  Levofloxacin MIC, +EPI: 0.125 µg/mL
[5]; AR-0264
  Levofloxacin MIC fold difference, +EPI: 16 fold
  Levofloxacin MIC, +EPI: 4 µg/mL
[5]; TXA11114 […], PAβN and MC-04,124 50 µg/mL
  Share of CDC isolates with levofloxacin MIC reduced ≥8-fold (potentiated): approximately 85%
[5]; [8]
  Share of isolates in which levofloxacin was potentiated: > 90%
  Share of strains restored to levofloxacin susceptibility at or below EUCAST breakpoint (≤2 μg/mL): approximately 60%
[5]; diverse MDR clinical isolates
  Reductions in levofloxacin MIC values in many strains: 4- to 32 fold
CYP2C19
  IC50: > 100 µM
CYP2C9
  IC50: > 100 µM
CYP1A2
  IC50: > 100 µM
[6]
  Levofloxacin MIC in presence of TXA11114: 1 µg/mL
